Measurements taken from patent US20140256664A1, “COMPOSITIONS AND METHODS FOR A MYCOBACTERIUM TUBERCULOSIS DRUG SUSCEPTIBILITY TEST” (priority 2011, published 2014).
Where a name gives a salt, the structure may show the parent alone. Read-outs that look alike come from different tables or passages of the source.

Experiments:
Assay type in all cases: cell-based, Mycobacterium tuberculosis
[1] = tested on: 33 isolates of M. tuberculosis; conditions: for need for drug pre-treatment prior to phage incubation: Tb inoculum and phage added simultaneously, significant ΔCt in 24 hour
[2] = tested on: M. tuberculosis in smear positive sputum sediments; conditions: total 22 sediments
M. tuberculosis isolates [3] = tested on: M. tuberculosis isolates
M. tuberculosis isolates [4] = tested on: M. tuberculosis isolates; remark: listed apart in the source
[5] = tested on: M. tuberculosis H37Rv (ATCC 27294); assay: D29 phage-qPCR assay development on H37Rv; conditions: for duration of drug treatment at which qPCR Ct became clearly disparate from control: drug treatment followed by 24 h phage incubation, FIG. 1D
[6] = strains confirmed as drug susceptible by agar proportion

Molecule	need for drug pre-treatment prior to phage incubation [1]	Culture R (n samples) ([2]; sediment phage assay result R)	Culture S (n samples) ([2]; sediment phage assay result R)	Culture R (n samples) ([2]; sediment phage assay result S)	Culture S (n samples) ([2]; sediment phage assay result S)	Agar proportion R (n isolates) (M. tuberculosis isolates [3]; phage assay result R)	Agar proportion S (n isolates) (M. tuberculosis isolates [3]; phage assay result R)	Agar proportion R (n isolates) (M. tuberculosis isolates [3]; phage assay result S)	Agar proportion S (n isolates) (M. tuberculosis isolates [3]; phage assay result S)	also measured
Nc1ccc(C(=O)O)c(O)c1 [para-aminosalicylic acid]	–	–	–	–	–	–	–	–	–	duration of drug treatment of Tb prior to 24 hours of phage incubation yielding optimal ΔCt [1, 6]: 48 h
[H]/N=C(/N)N[C@H]1[C@H](O)[C@@H](O)[C@H](O[C@@H]2O[C@@H](C)[C@](O)(C=O)[C@H]2O[C@@H]2O[C@@H](CO)[C@H](O)[C@@H](O)[C@@H]2NC)[C@@H](N/C(N)=N\[H])[C@@H]1O [Streptomycin, streptomycin sulfate]	no pre-treatment was required	1	0	1	20	16	0	3	135	–
CC(=O)NC[C@H]1CN(c2ccc(N3CCOCC3)c(F)c2)C(=O)O1 [Linezolid, linezolid]	no pre-treatment was required	–	–	–	–	–	–	–	–	–
CC[C@@H](CO)NCCN[C@@H](CC)CO [Ethambutol, ethambutol hydrochloride]	–	0	0	0	22	0	1	8	145	D29 phage assay susceptible (n isolates) ([1]; listed as EMB, hydrochloride): 12; duration of drug treatment of Tb prior to 24 hours of phage incubation yielding optimal ΔCt [1, 6]: 48 h; Agar proportion susceptible (n isolates) (M. tuberculosis isolates [4]; listed as EMB, hydrochloride): 12
NNC(=O)c1ccncc1 [Isoniazid, isoniazid]	–	1	3	0	18	22	9	5	118	number of phage / real-time PCR Ct value after drug pre-treatment [5]: the number of phage did not increase/Ct value did not decrease; need for drug pre-treatment prior to phage incubation ([5]; H37Rv, FIG. 1E, 48 h superior to 24 h, 6 h and 3 h): pre-treatment was required; duration of drug treatment at which qPCR Ct became clearly disparate from control ([5]; H37Rv): 48 h
capreomycin sulfate	no pre-treatment was required	–	–	–	–	–	–	–	–	D29 phage assay susceptible (n isolates) ([1]; listed as CAP): 30; Agar proportion susceptible (n isolates) (M. tuberculosis isolates [4]; listed as CAP): 31
NCC[C@H](O)C(=O)N[C@@H]1C[C@H](N)[C@@H](O[C@H]2O[C@H](CN)[C@@H](O)[C@H](O)[C@H]2O)[C@H](O)[C@H]1O[C@H]1O[C@H](CO)[C@@H](O)[C@H](N)[C@H]1O [Amikacin, amikacin]	no pre-treatment was required	–	–	–	–	–	–	–	–	D29 phage assay susceptible (n isolates) ([1]; listed as AMK): 31; Agar proportion susceptible (n isolates) (M. tuberculosis isolates [4]; listed as AMK): 31
CO[C@H]1/C=C/O[C@@]2(C)Oc3c(C)c(O)c4c(O)c(c(/C=N/N5CCN(C)CC5)c(O)c4c3C2=O)NC(=O)/C(C)=C\C=C\[C@H](C)[C@H](O)[C@@H](C)[C@@H](O)[C@@H](C)[C@H](OC(C)=O)[C@@H]1C [Rifampin, rifampin]	–	1	0	0	21	5	2	5	142	number of phage / real-time PCR Ct value after drug pre-treatment [5]: the number of phage did not increase/Ct value did not decrease; ΔCtRIF (Ct control−Ct drug) [5]: −12; ΔCt ([5]; H37Rv pre-treated with drug for 72 hours, FIG. 1B): approximately −5; duration of drug treatment at which qPCR Ct became clearly disparate from control ([5]; H37Rv): 24 h; D29 phage assay susceptible (n isolates) ([1]; listed as RIF): 11; Agar proportion susceptible (n isolates) (M. tuberculosis isolates [4]; listed as RIF): 11
CCc1cc(C(N)=S)ccn1 [Ethionamide, ethionamide]	–	–	–	–	–	–	–	–	–	duration of drug treatment of Tb prior to 24 hours of phage incubation yielding optimal ΔCt [1]: 48 h
N[C@@H]1CON=C1O [Cycloserine, D-cycloserine]	no pre-treatment was required	–	–	–	–	–	–	–	–	–
